The source of these data is US20180057553A1, “CONJUGATE AND USE THEREOF” (The University of Tokyo, priority 2015, published 2018).

Chain of IL-6 protein (P05231 30-212): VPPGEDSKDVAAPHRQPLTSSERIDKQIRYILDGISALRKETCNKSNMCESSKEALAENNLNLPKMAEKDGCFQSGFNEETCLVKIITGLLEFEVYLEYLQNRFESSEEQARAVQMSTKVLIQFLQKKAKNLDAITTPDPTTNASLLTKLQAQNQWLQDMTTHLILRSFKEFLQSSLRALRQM

One data set addresses IL-6 protein (Homo sapiens, UniProt P05231). Description: ELISA on IL-6 protein with the conjugate of antibody Fab fragment and intelectin (Example 8). The format is binding. The note with it: conjugate as primary antibody; HRP-labeled anti-intelectin-1 antibody 2D2. The protocol: An ELISA analysis on IL-6 protein was performed using the conjugate generated in Example 6.
More specifically, IL-6 protein was adsorbed on an ELISA plate, and the conjugate generated in Example 6 was used for reaction as the primary antibody, and the horseradish peroxidase-labeled anti-intelectin-1 monoclonal antibody (2D2) was used for reaction as the secondary antibody. The detection was conducted using 3,3′,5,5′-tetramethylbenzidine.
(In general: An ELISA detects its analyte on a solid surface through an enzyme-linked reagent.)
On to “conjugate generated in Example 6: H chain Fab region of anti-IL-6 monoclonal antibody MH166 joined via one glycine to human intelectin-1 (S165A), co-expressed with MH166 L chain”, for which the “binding to IL-6 protein (ELISA)” value is “bind to IL-6 protein”.

A further data set deals with T1, Recombinant human TNF-alpha (Homo sapiens, UniProt P01375).
T1 construct: purchased Life Technologies
T1 sequence (P01375 77-233 limits assumed): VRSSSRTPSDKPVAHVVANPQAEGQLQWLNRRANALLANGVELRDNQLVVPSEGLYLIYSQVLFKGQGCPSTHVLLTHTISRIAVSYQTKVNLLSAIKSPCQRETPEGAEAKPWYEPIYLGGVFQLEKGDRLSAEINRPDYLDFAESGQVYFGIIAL
Description: Affinity between the conjugate of TNFR2 and intelectin and TNF-alpha (Biacore, Example 11). The format is binding. The conditions noted are these: TNF-alpha as analyte, ligand fixed to sensor chip. Here is the method: The binding affinity between the conjugate generated in Example 7 and TNF-alpha was measured using Biacore (GE Healthcare Biosciences). The binding affinity between a commercially available anti-TNF formulation (Etanercept, soluble TNF receptor, product name “ Enbrel (registered trademark),” Takeda Pharmaceutical Company) and TNF-alpha was also measured as a control.
Recombinant human TNF-alpha (Life Technologies) was used as TNF-alpha.
For orientation: SPR reads the build-up and loss of mass on a sensor chip optically.
Consider Etanercept, for which the “association rate constant Ka” value was 1.09e+06 M⁻¹ s⁻¹ and the “dissociation rate constant Kd” value is 0.000342 s⁻¹.

The data set is the same for the next values; noted with them: TNF-alpha as analyte, ligand fixed to sensor chip; read-out: dissociation constant KD.
A word on the Kd: it is a measure of binding affinity in units of concentration. Regarding Etanercept, the Kd was 0.313 nM.

Another data set deals with T2, Recombinant human intelectin-1 (Homo sapiens, UniProt Q8WWA0, V109D). Description: Binding of monoacylglycerol and intelectin (precipitation, SDS-PAGE, Example 5). The conditions noted are these: lipid 100 micro M in medium containing intelectin, 15 minutes at 37 deg C. The protocol: Monoacylgrycerols such as monopalmitin and monoolein are used as a component of micelles or liposomes. 1-monopalmitin, 2-monopalmitin, or 1-palmitoyl lysophosphatidic acid as a negative control at the final concentration of 100 micro M was added to 500 microliters of a medium containing intelectin, and the medium was stirred intensely and incubated for 15 minutes at 37 deg C. Recombinant human intelectin-1 was used as intelectin. By the above-mentioned procedures, it is expected that insoluble aggregates having a micelle-like structure with the diol group facing outwards and the acyl group facing inwards are formed and intelectin binds on the surface.
T2 sequence (Q8WWA0 19-298 V109D): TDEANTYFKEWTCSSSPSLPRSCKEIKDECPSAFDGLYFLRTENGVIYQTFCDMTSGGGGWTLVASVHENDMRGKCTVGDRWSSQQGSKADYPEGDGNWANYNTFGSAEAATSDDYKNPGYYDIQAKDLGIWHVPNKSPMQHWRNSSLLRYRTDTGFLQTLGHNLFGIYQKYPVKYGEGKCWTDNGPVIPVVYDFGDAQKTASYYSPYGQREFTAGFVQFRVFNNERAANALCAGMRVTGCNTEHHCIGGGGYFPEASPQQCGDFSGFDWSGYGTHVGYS
Subsequently, the samples were cooled for 15 minutes at 4 deg C. and centrifuged, and the precipitation was collected, washed once with buffer, and dissolved in sample buffer. Samples were then separated by SDS-PAGE and stained with Coomassie Brilliant Blue.
`CCCCCCCCCCCCCCCC(=O)OCC(O)CO` (stereo not drawn) [1-monopalmitin]: the “binding of intelectin to the lipid (SDS-PAGE)” value was “bound”. With `CCCCCCCCCCCCCCCC(=O)OCC(O)COP(=O)(O)O` (stereo not drawn) [1-palmitoyl lysophosphatidic acid], the “binding of intelectin to the lipid (SDS-PAGE)” value is recorded as “only slightly”. Still for that read-out and setting: in the case of `CCCCCCCCCCCCCCCC(=O)OC(CO)CO` [2-monopalmitin] it was “bound”.

In a further data set the target is T1, Recombinant human TNF-alpha. Description: Inhibitory effect on cytotoxicity by TNF-alpha in L929 cells (Example 12). The format is cell-based, mouse. The note with it: actinomycin D 2.12 micro M, TNF-alpha 1 ng/mL, 24 hours. Here is the method: Actinomycin D at the final concentration of 2.12 micro M, recombinant human TNF-alpha (Life Technologies) at the final concentration of 1 ng/mL, and serially diluted conjugates generated in Example 7 were added to the medium of L929, a mouse-derived cell line, and the cells were cultured for 24 hours at 37 deg C. Subsequently, the number of live cells were measured using a commercially available kit (model “CellTiter96 (Trademark),” Promega), and the cell survival rate was determined. Another experiment, where a commercially available anti-TNF formulation (Etanercept, soluble TNF receptor, product name “ Enbrel (registered trademark),” Takeda Pharmaceutical Company) was used instead of the conjugate generated in Example 7, was also performed as a control.
On to Etanercept, for which the “cytotoxicity inhibitory activity (cell survival rate)” value is listed as “approximately equivalent cytotoxicity inhibitory activities”.

The next data set addresses T2, Recombinant human intelectin-1. Description: Inhibition of the binding of intelectin to a 3-amino-1-propanediol sensor chip by various compounds (Biacore, Example 3).
Conditions: not given
Here is the method:
The binding of purified intelectin to a sensor chip to which 3-amino-1-propanediol is fixed via an amino group was measured using Biacore (GE Healthcare Biosciences) under the presence of various kinds of compounds that were serially diluted. Recombinant human intelectin-1 was used as intelectin. The above-mentioned compound was a compound containing or not containing a diol group. Specifically, the compound was glycerol, 1,2-propanediol, 1,3-propanediol, 1-propanol, ethylene glycol, ethanol, 2-methoxyethanol, galactose, 2-acetamido-2-deoxy-4-O-beta-D-galactopyranosyl-D-glucopyranose (Galp-GlcNAc), 2-acetamido-2-deoxy-4-O-beta-D-galactofuranosyl-D-glucopyranose (Galf-GlcNAc), D-ribose, or L-ribose.
Intelectin was used at the final concentration of 0.5 microgram/mL. 10 mM HEPES (pH 7.0) containing 1 mM CaCl2, 150 mM NaCl, and 0.03% Tween 20 was used as the measuring buffer. The binding of intelectin measured using the sample that was not added with an above-mentioned compound was considered 100%, and the binding of intelectin in each sample was measured.
One may read the IC50 as the concentration at which inhibition is half-maximal. For the compound `OCCCCO` [1,4-butanediol], the IC50 was more than 100 mM. In the case of `O=C(CO)[C@@H](O)[C@H](O)[C@H](O)CO` [D-fructose], the IC50 stood at 9 mM. Consider `O=C[C@H](O)[C@@H](O)[C@@H](O)[C@H](O)CO` [D-galactose], for which the IC50 worked out at 11 mM. For the compound `O=C[C@H](O)[C@@H](O)[C@H](O)[C@H](O)CO` [D-glucose], the IC50 came out at 18 mM.

For the compound `O=C[C@@H](O)[C@@H](O)[C@H](O)[C@H](O)CO` [D-mannose], the IC50 came to 16 mM. In the case of `O=C(CO)[C@@H](O)[C@H](O)[C@@H](O)CO` [L-sorbose], the IC50 came to 14 mM. The same measure, in the same setting: to `OCCO` [ethylene glycol] belongs 2.2 mM.

Still in this data set, the particulars now being: Biacore; intelectin 0.5 microgram/mL; sensor chip with 3-amino-1-propanediol fixed; 10 mM HEPES pH 7.0, 1 mM CaCl2; read-out: IC50 for inhibition of the binding of intelectin and the diol group.
On to `CCC(O)CO` (stereo not drawn) [1,2-butanediol], for which the IC50 is 0.8 mM. With `CC(O)CO` (stereo not drawn) [1,2-propanediol], the IC50 came to 0.9 mM. Regarding `CC(O)CCO` (stereo not drawn) [1,3-butanediol], the IC50 is 35 mM. As for `OCCCO` [1,3-propanediol], the IC50 amounted to 30 mM. On to `CCCO` [1-propanol], for which the IC50 was more than 100 mM. Still for that read-out and setting: in the case of `COC1(C(=O)O)C[C@H](O)[C@@H](NC(C)=O)[C@H]([C@H](O)[C@H](O)CO)O1` (stereo partly drawn) [2-O-methyl-D-N-acetylneuraminic acid] it was 6 mM; in that of `O=CC[C@@H](O)[C@@H](O)[C@H](O)CO` [2-deoxygalactose], 1.1 mM. Still for that read-out and setting: to `O=CC[C@H](O)[C@H](O)CO` [2-deoxyribose] belongs 1.8 mM. Same read-out and setting: in the case of `COCCO` [2-methoxyethanol] it was more than 100 mM.

In the case of `NCC(O)CO` (stereo not drawn) [3-amino-1,2-propanediol], the IC50 is 1.8 mM. Still for that read-out and setting: to `NCCCO` [3-amino-1-propanol] belongs more than 100 mM. For the compound `C[C@@H](O)CO` [(R)-1,2-propanediol], the IC50 was 1 mM.

Regarding `C[C@@H](O)[C@@H](C)O` [(R,R)-2,3-butanediol], the IC50 was determined as 5 mM. Turning to `C[C@H](O)CO` [(S)-1,2-propanediol], the IC50 turned out to be 1.2 mM.

Consider `C[C@H](O)[C@H](C)O` [(S,S)-2,3-butanediol], for which the IC50 was determined as 5 mM.

As to `O=P(O)(O)OC(CO)CO` [Beta-glycerophosphate], the IC50 was more than 100 mM.

In the case of `O=C[C@@H](O)[C@H](O)[C@H](O)CO` [D-arabinose], the IC50 turned out to be 30 mM. On the same count and under the same terms, in the case of `C[C@@H](O)[C@H](O)[C@H](O)[C@@H](O)C=O` [D-fucose] it was 60 mM; in that of `O=C[C@@H](O)[C@@H](O)[C@H](O)CO` [D-lyxose], 22 mM. Same read-out and setting: to `O=C[C@H](O)[C@H](O)[C@H](O)CO` [D-ribose] belongs 0.5 mM; to `O=C[C@H](O)[C@@H](O)[C@H](O)CO` [D-xylose], 3.3 mM; to `NCCO` [Ethanolamine], more than 100 mM. Same read-out and setting: to `CC(=O)N[C@H]1C(O)O[C@H](CO)[C@@H](O[C@@H]2O[C@@H]([C@H](O)CO)[C@H](O)[C@H]2O)[C@@H]1O` (stereo partly drawn) [Galf-GlcNAc, 2-acetamido-2-deoxy-4-O-beta-D-galactofuranosyl-D-glucopyranose] belongs 1.4 mM; to `CC(=O)N[C@H]1C(O)O[C@H](CO)[C@@H](O[C@@H]2O[C@H](CO)[C@H](O)[C@H](O)[C@H]2O)[C@@H]1O` (stereo partly drawn) [Galp-GlcNAc, 2-acetamido-2-deoxy-4-O-beta-D-galactopyranosyl-D-glucopyranose], 13 mM.

In the case of `O=C[C@H](O)[C@@H](O)[C@@H](O)CO` [L-arabinose], the IC50 was determined as 22 mM. Still for that read-out and setting: in the case of `O=C1O[C@H]([C@@H](O)CO)C(O)=C1O` [L-ascorbic acid] it was 0.8 mM; in that of `C[C@H](O)[C@@H](O)[C@@H](O)[C@H](O)C=O` [L-fucose], more than 100 mM. Still for that read-out and setting: to `O=C[C@H](O)[C@H](O)[C@@H](O)CO` [L-lyxose] belongs 13 mM. Still for that read-out and setting: to `C[C@H](O)[C@H](O)[C@@H](O)[C@@H](O)C=O` [L-rhamnose] belongs 30 mM; to `O=C[C@@H](O)[C@@H](O)[C@@H](O)CO` [L-ribose], 0.3 mM; to `O=C[C@@H](O)[C@H](O)[C@@H](O)CO` [L-xyrose], 9 mM.

On to `CC(=O)N[C@H]1C(O)O[C@H](CO)[C@@H](O)[C@@H]1O` (stereo partly drawn) [N-acetylglucosamine], for which the IC50 was found to be 50 mM. Still for that read-out and setting: to `NC(CO)(CO)CO` [Tris] belongs 14 mM; to `O=P(O)(O)OCC(O)CO` (stereo not drawn) [alpha-glycerophosphate], 1.2 mM. In the case of `CCO` [ethanol], the IC50 is more than 100 mM.

Consider `OCC(O)CO` [glycerol], for which the IC50 worked out at 0.8 mM. The same measure, in the same setting: in the case of `C[C@H](O)[C@@H](C)O` [meso-2,3-butanediol] it was 1.8 mM. Take `CCCC(=O)OCC(O)CO` (stereo not drawn) [monobutyrin]: the IC50 was 0.8 mM.

For the compound `OC[C@@H](O)[C@@H](O)[C@@H](O)CO` [ribitol], the IC50 amounted to 1.2 mM.
